Target: T1, PPARγ-RXRα heterodimer (Homo sapiens, UniProt P19793+P37231)
T1 construct: expressed in transfected cells; host or cells: CHO-K1
T1 sequence (P37231 1-477 isoform P37231-2): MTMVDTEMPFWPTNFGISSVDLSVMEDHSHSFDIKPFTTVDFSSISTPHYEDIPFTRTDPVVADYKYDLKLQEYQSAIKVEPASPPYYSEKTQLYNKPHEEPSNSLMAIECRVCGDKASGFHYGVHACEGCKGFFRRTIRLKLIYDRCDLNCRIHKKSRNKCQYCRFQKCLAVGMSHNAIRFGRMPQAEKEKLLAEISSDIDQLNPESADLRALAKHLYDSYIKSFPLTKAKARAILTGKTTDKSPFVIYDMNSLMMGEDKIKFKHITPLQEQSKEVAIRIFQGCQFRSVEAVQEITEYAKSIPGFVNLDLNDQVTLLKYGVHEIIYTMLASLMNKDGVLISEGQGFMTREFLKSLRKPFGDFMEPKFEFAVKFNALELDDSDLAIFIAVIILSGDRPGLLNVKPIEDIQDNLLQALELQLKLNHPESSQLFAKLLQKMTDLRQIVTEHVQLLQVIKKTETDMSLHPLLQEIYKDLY
T1 sequence (P19793 1-462): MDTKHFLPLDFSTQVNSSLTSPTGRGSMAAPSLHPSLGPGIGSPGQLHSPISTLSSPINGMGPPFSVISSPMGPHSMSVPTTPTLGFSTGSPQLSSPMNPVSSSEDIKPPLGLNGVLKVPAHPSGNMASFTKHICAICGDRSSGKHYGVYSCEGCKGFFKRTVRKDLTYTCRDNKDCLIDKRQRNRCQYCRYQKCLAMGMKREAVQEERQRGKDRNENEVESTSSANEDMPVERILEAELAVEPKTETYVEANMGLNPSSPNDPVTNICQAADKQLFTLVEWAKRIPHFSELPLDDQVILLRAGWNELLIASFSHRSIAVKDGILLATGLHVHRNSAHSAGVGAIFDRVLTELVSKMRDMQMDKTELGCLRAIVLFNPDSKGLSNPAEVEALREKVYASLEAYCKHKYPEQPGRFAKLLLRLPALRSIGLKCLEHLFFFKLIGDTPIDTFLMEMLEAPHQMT
Test: PPARγ-RXRα heterodimer ligand activity (luciferase reporter in PPARγ:RXRα:4ERPP/CHO-K1 cells)
Type: cell-based
Settings: luciferase fold induction, 48 hours
Method: (§1) PPAR γ:RXR α:4ERPP/CHO-K1 cells obtained in Reference Example 5 were cultured in HAM F12 medium (produced by NISSUI SEIYAKU) containing 10% Fetal bovine serum (produced by Life Technologies, Inc., USA) and then inoculated to a 96-well white plate (produced by Corning Costar Corporation, USA) at the density of 2×10^4 cells/well, and cultured in a CO2 gas incubator at 37° C. overnight.
(§2) After washing the 96 well white plate with PBS (Phosphate-buffered saline), 90 μl of HAM F12 medium containing 0.1% fatty acid-free bovine serum albumin (BSA) and 10 μl of test compound were added to each well, and the plate was cultured in a CO2 gas incubator at 37° C. for 48 hours. After removing the medium, 40 μl of PIKKAGENE 7.5 (produced by Wako Pure Chemical Industries, Ltd.) was added to the well. After stirring, the luciferase activity was determined using Lumistar (produced by BMG Labtechnologies GmbH, Germany).
(§3) A fold induction was calculated based on the luciferase activity of each test compound by estimating the luciferase activity in the non-treatment group as 1. The values of the test compound concentration and the fold induction were used to calculate the EC50 values, the effective concentration of a test compound for 50% of the maximum fold induction, by using PRISM 2.01 (produced by GraphPad Software Inc. USA).
as §1, with “PPARγ:RXRα:4ERPP/CHO-K1” for “PPAR γ:RXR α:4ERPP/CHO-K1”, “Reference.” for “Reference”
as §2, with “7.5 produced” for “7.5 (produced”, “Labtechnologies Gmbh,” for “Labtechnologies GmbH,”
as §3, with “maximum” for “maximum fold”, “USA). The results are shown in [Table 1].” for “USA).”

EC50 [nM]	Structure (SMILES)
92	O=C(O)c1ccc(-c2nc(-c3ccc(Cl)cc3)co2)cc1 [Example 8, 4-[4-(4-chlorophenyl)-2-oxazolyl]benzoic acid]
1.9	CCOc1ccc(-c2csc(-c3cccc(C(=O)O)c3)n2)cc1 [Example 96, 3-[4-(4-ethoxyphenyl)-2-thiazolyl]benzoic acid]
5.1	CC(C)c1ccc(-c2csc(-c3cccc(C(=O)O)c3)n2)cc1 [Example 100, 3-[4-(4-isopropylphenyl)-2-thiazolyl]benzoic acid]

More lines, now with the values behind:

Structure (SMILES)	EC50 [nM]
Cc1cc(-c2csc(-c3cccc(C(=O)O)c3)n2)c(C)o1 [Example 72, 3-[4-(2,5-dimethyl-3-furyl)-2-thiazolyl]benzoic acid]	0.6
O=C(O)c1cccc(-c2nc(-c3cc(Cl)sc3Cl)cs2)c1 [Example 95, 3-[4-(2,5-dichloro-3-thienyl)-2-thiazolyl]benzoic acid]	100

Test system: not given
Test: not given
Settings: not given

melting point [°C]	Structure (SMILES)
154 to 155	COC(=O)c1ccc(-c2nc(-c3ccc(C(C)(C)C)cc3)cs2)cc1 [Example 85, methyl 4-[4-(4-t-butylphenyl)-2-thiazolyl]benzoate]
91 to 92	CCOC(=O)c1cccc(-c2nc(-c3ccc(C(C)C)cc3)cs2)c1 [Example 86, ethyl 3-[4-(4-isopropylphenyl)-2-thiazolyl]benzoate]
261 to 262	Cc1ccc(-c2csc(-c3ccc(C(=O)O)cc3)n2)cc1C [Example 90, 4-[4-(3,4-dimethylphenyl)-2-thiazolyl]benzoic acid]
264 to 265	Cc1cc(-c2csc(-c3ccc(C(=O)O)cc3)n2)c(C)o1 [Example 91, 4-[4-(2,5-dimethyl-3-furyl)-2-thiazolyl]benzoic acid]
155 to 156	Cc1cc(-c2csc(-c3cccc(C(=O)O)c3)n2)c(C)s1 [Example 92, 3-[4-(2,5-dimethyl-3-thienyl)-2-thiazolyl]benzoic acid]
266 to 267	O=C(O)c1ccc(-c2nc(-c3cc(Cl)sc3Cl)cs2)cc1 [Example 94, 4-[4-(2,5-dichloro-3-thienyl)-2-thiazolyl]benzoic acid]
214 to 215	CC(C)c1ccc(-c2csc(-c3cccc(C(=O)O)c3)n2)cc1 [Example 100, 3-[4-(4-isopropylphenyl)-2-thiazolyl]benzoic acid]
163 to 164	CCOC(=O)c1ccc(-c2csc(-c3ccc(C(F)(F)F)cc3)n2)cc1 [Example 104, ethyl 4-[2-(4-trifluoromethylphenyl)-4-thiazolyl)benzoate]
247 to 248	Br.CCOC(=O)c1ccc(-c2csc(-c3ccncc3)n2)cc1 [Example 105, ethyl 4-[2-(4-pyridyl)-4-thiazolyl)benzoate hydrobromide]
142 to 143	CCOC(=O)c1ccc(-c2cnc(-c3ccc(C(F)(F)F)cc3)o2)cc1 [Example 107, ethyl 4-[2-(4-trifluoromethylphenyl)-5-oxazolyl]benzoate]
265 to 266	O=C(O)c1cccc(-c2nc(-c3ccc(Cl)cc3)cs2)c1 [compound 12, 3-[4-(4-chlorophenyl)-2-thiazolyl]benzoic acid]
268 to 270	O=C(O)c1ccc(-c2cnc(-c3ccc(Cl)cc3)o2)cc1 [compound 13, 4-[2-(4-chlorophenyl)-5-oxazolyl]benzoic acid]

Further lines, the compound ahead of its results:

Structure (SMILES)	melting point [°C]
Cc1cc(-c2csc(-c3cccc(C(=O)O)c3)n2)c(C)o1 [Example 72, 3-[4-(2,5-dimethyl-3-furyl)-2-thiazolyl]benzoic acid]	174 to 175
COC(=O)c1ccc(-c2nc(-c3ccc(C(C)C)cc3)cs2)cc1 [Example 87, methyl 4-[4-(4-isopropylphenyl)-2-thiazolyl]benzoate]	134 to 135
Cc1ccc(-c2csc(-c3cccc(C(=O)O)c3)n2)cc1C [Example 88, 3-[4-(3,4-dimethylphenyl)-2-thiazolyl]benzoic acid]	235 to 236
O=C(O)c1ccc(-c2nc(-c3ccc(Br)cc3)cs2)cc1 [Example 89, 4-[4-(4-bromophenyl)-2-thiazolyl]benzoic acid]	> 300
Cc1cc(-c2csc(-c3ccc(C(=O)O)cc3)n2)c(C)s1 [Example 93, 4-[4-(2,5-dimethyl-3-thienyl)-2-thiazolyl]benzoic acid]	239 to 240
O=C(O)c1cccc(-c2nc(-c3cc(Cl)sc3Cl)cs2)c1 [Example 95, 3-[4-(2,5-dichloro-3-thienyl)-2-thiazolyl]benzoic acid]	241 to 242
CC(C)(C)c1ccc(-c2csc(-c3cccc(C(=O)O)c3)n2)cc1 [Example 98, 3-[4-(4-t-butylphenyl)-2-thiazolyl]benzoic acid]	250 to 251
CCCCc1ccc(-c2csc(-c3ccc(C(=O)O)cc3)n2)cc1 [Example 99, 4-[4-(4-butylphenyl)-2-thiazolyl]benzoic acid]	263 to 265
CC(C)c1ccc(-c2csc(-c3ccc(C(=O)O)cc3)n2)cc1 [Example 101, 4-[4-(4-isopropylphenyl)-2-thiazolyl]benzoic acid]	257 to 258
CCOC(=O)c1ccc(-c2csc(-c3ccccc3)n2)cc1 [Example 102, ethyl 4-(2-phenyl-4-thiazolyl]benzoate]	72 to 73
CCOC(=O)c1ccc(-c2csc(-c3ccc(Cl)cc3)n2)cc1 [Example 103, ethyl 4-[2-(4-chlorophenyl)-4-thiazolyl)benzoate]	105 to 106
CCOC(=O)c1ccc(-c2ncc(-c3ccc(Cl)cc3)o2)cc1 [Example 108, ethyl 4-[5-(4-chlorophenyl)-2-oxazolyl]benzoate]	195 to 197
CCOC(=O)c1ccc(-c2ncc(-c3ccc(Cl)cc3)s2)cc1 [Example 112, ethyl 4-[5-(4-chlorophenyl)-2-thiazolyl]benzoate]	167 to 168
O=C(O)c1ccc(-c2ncc(-c3ccc(Cl)cc3)s2)cc1 [Example 114, 4-[5-(4-chlorophenyl)-2-thiazolyl]benzoic acid]	> 300
O=C(O)c1ccc(-c2csc(-c3ccccc3)n2)cc1 [Reference Example 9, 4-(2-phenyl-4-thiazolyl]benzoic acid]	245 to 248
O=C(O)c1ccc(-c2csc(-c3ccc(Cl)cc3)n2)cc1 [compound 10, 4-[2-(4-chlorophenyl)-4-thiazolyl]benzoic acid]	284 to 285

Reference: patent US6545009B1, “Retinoid-related receptor function regulating agent” (Takeda Chemical Industries, Ltd., priority 1998, dated 2003)
